In PubChem BioAssay (NCI):
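Grown in 96-well plates, cells were treated for 48 hours with each compound at five concentrations. Insufficient inhibition: endpoint recorded as highest concentration tested. GI50 is the concentration that inhibits growth by half. TGI: total growth inhibition.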

Assays:
Experiment in all cases: NCI anticancer screen, dose series, 48 h
CCRF-CEM leukemia = test system: CCRF-CEM leukemia
M14 melanoma = test system: M14 melanoma
PC-3 prostate = test system: PC-3 prostate
T-47D breast = test system: T-47D breast
HCC-2998 colon = test system: HCC-2998 colon
ACHN renal = test system: ACHN renal
A498 renal = test system: A498 renal
HL-60(TB) leukemia = test system: HL-60(TB) leukemia
A549 NSCLC = test system: A549 NSCLC
SK-MEL-28 melanoma = test system: SK-MEL-28 melanoma

Row | Structure (SMILES) | GI50 (CCRF-CEM leukemia) | TGI (CCRF-CEM leukemia) | GI50 (M14 melanoma) | TGI (M14 melanoma) | GI50 (PC-3 prostate) | TGI (PC-3 prostate) | GI50 (T-47D breast) | TGI (T-47D breast) | GI50 (HCC-2998 colon) | TGI (HCC-2998 colon) | GI50 (ACHN renal) | TGI (ACHN renal) | GI50 (A498 renal) | TGI (A498 renal) | GI50 (HL-60(TB) leukemia) | TGI (HL-60(TB) leukemia) | GI50 (A549 NSCLC) | TGI (A549 NSCLC) | GI50 (SK-MEL-28 melanoma) | TGI (SK-MEL-28 melanoma)
1 | CN1C(=O)N(C)C2C1NN=c1s/c(=C\c3ccc(F)cc3)c(=O)n12 (stereo not given) | 1.91 µM | > 100 µM | 2.24 µM | > 100 µM | 2.33 µM | > 100 µM | 1.25 µM | > 100 µM | 13.4 µM | > 100 µM | 4.39 µM | > 100 µM | 1.39 µM | 6.77 µM | 1.63 µM | 4.53 µM | 4.88 µM | > 100 µM | 7.31 µM | > 100 µM
2 | CCN(CC)C(=S)SC | – | > 100 µM | – | > 100 µM | – | > 100 µM | – | > 100 µM | – | > 100 µM | – | > 100 µM | – | > 100 µM | – | > 100 µM | – | > 100 µM | – | > 100 µM
3 | COc1ccc2cc(-c3c(-c4ccncc4)nc(-c4ccc(S(C)(=O)=O)cc4C)n3C)ccc2c1 | 8.46 µM | > 25 µM | 10.1 µM | > 25 µM | 8.35 µM | > 25 µM | 5.14 µM | > 18.6 µM | 12 µM | > 25 µM | 8.36 µM | > 25 µM | 6.31 µM | > 25 µM | 6.54 µM | 21.7 µM | 9.04 µM | > 25 µM | 9.28 µM | 24.9 µM
4 | COc1ccc(Cn2cc3c(c2)-c2oncc2CC3)cc1 | 2.87 µM | > 88.6 µM | 3.12 µM | 61.7 µM | 5.26 µM | 61.1 µM | 5.09 µM | > 100 µM | 5.98 µM | 27.5 µM | 11.6 µM | > 100 µM | 1.74 µM | 9.74 µM | 1.72 µM | 8.26 µM | 7.26 µM | > 74.4 µM | 4.08 µM | > 52.8 µM
5 | CC1C(=O)OCC2=CCN3CCC(OC(=O)C(C)C1(C)O)C23 (stereo not given) | – | > 100 µM | – | > 100 µM | – | > 100 µM | – | > 100 µM | – | > 100 µM | – | > 100 µM | – | > 100 µM | – | > 100 µM | – | > 100 µM | – | > 100 µM
6 | O=c1cccc(C2CC(CO)C3CCCCN3C2)[nH]1 (stereo not given) | – | > 100 µM | – | > 100 µM | – | > 100 µM | – | > 100 µM | – | > 100 µM | – | > 100 µM | – | > 100 µM | – | > 100 µM | – | > 100 µM | – | > 100 µM
7 | CCOc1cccc(/C=N/NC(=O)C(=O)Nc2cccc(C(F)(F)F)c2)c1O | 0.322 µM | 7.41 µM | 1.52 µM | 12.6 µM | 1.95 µM | > 100 µM | 2.67 µM | 36.1 µM | 3.28 µM | > 100 µM | 1.03 µM | 25.3 µM | 8.85 µM | 76.2 µM | 0.89 µM | 4.45 µM | 2.04 µM | > 100 µM | 5.51 µM | > 100 µM
8 | CCn1c(-c2nonc2N)nc2c(C#CC(C)(C)O)nc(OCCNC)cc21 | 7.25 µM | > 25 µM | 8.15 µM | 22.6 µM | 6.88 µM | > 25 µM | 3.83 µM | > 25 µM | 5.34 µM | > 25 µM | 8.29 µM | > 25 µM | 1.35 µM | 9.43 µM | 7.78 µM | 18.2 µM | 8.27 µM | > 25 µM | 8.49 µM | > 25 µM
9 | CC(CCC(=O)O)C(=O)O (stereo not given) | – | > 100 µM | – | > 100 µM | – | > 100 µM | – | > 100 µM | – | > 100 µM | – | > 100 µM | – | > 100 µM | – | > 100 µM | – | > 100 µM | – | > 100 µM
